Among the data in patent US5968951A, “Benzenesulfonamide derivatives as bradykinin antagonists” (Fournier Industrie et Sante, priority 1995, dated 1999) are inhibition values, retold here.

Molecules are shown by their SMILES. Where a name gives a salt, the structure may show the parent alone.

The inhibition is the percentage by which the read-out fell short of the control.

This assay deals with T1, guinea-pig B2 receptor (Cavia porcellus, UniProt O70526).
T1 construct: Ileum segments are isolated from male guinea-pigs of the Dunkin-Hartley strain; tissue Iffa Credo, l'Arbresle, France (animals); host or cells: ileum membranes of male Dunkin-Hartley guinea-pigs
T1 sequence (O70526 1-372): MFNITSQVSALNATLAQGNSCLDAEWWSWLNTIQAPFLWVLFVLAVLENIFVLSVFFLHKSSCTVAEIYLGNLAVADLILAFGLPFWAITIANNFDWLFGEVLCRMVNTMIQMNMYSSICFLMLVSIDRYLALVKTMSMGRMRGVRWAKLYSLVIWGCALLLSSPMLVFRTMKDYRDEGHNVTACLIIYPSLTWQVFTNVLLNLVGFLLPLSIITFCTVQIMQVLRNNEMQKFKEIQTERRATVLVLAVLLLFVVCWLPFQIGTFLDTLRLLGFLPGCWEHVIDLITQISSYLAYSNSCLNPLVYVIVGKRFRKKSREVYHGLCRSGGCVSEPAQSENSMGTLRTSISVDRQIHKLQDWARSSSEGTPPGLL
In words: [3H]-bradykinin binding to guinea-pig ileum membranes. The following applies: test compound 10^-6 M; [3H]-bradykinin 120 pM; 50 μg membrane protein; 90 min at 20° C.; read-out: Activity % (percentage inhibition of the binding of [3H]-bradykinin). As to the method:
We used the following pharmacological test: Ileum segments are isolated from male guinea-pigs of the Dunkin-Hartley strain (Iffa Credo, l'Arbresle, France) and ground in the following TES buffer: TES 25 mM, 1,10-phenanthroline 1 mM (pH 6.8), bacitracin 140 μg/ml, BSA 1 g/l. The membranes are then isolated by centrifugation (18,000 rpm; 20 min; 4° C.). The binding studies are carried out in the TES buffer using [^3 H]-bradykinin (120 pM) and 50 μg of membrane protein per test (final volume 500 μl) with an equilibrium time of 90 min at 20° C.
With `Cc1ccc2cccc(OCc3c(Cl)ccc(S(=O)(=O)N(C)Cc4c[nH]c5ccccc45)c3Cl)c2n1` [Example 7, 2,4-Dichloro-N-methyl-N-[(indol-3-yl)methyl]-3-[(2-methylquinolin-8yl)oxymethyl]benzenesulfonamide], the inhibition at 1 µM was determined as 97.6%.

For `Cc1ccc2cccc(OCc3c(Cl)ccc(S(=O)(=O)N(C)Cc4ccc(N)cc4)c3Cl)c2n1` [Example 8, 2,4-Dichloro-N-methyl-N-[(4-aminophenyl)methyl]-3-[(2-methylquinolin-8-yl)oxymethyl]benzenesulfonamide dihydrochloride], the inhibition at 1 µM turned out to be 99.5%.

Consider `Cc1ccc2cccc(OCc3c(Cl)ccc(S(=O)(=O)N(C)Cc4ccc(O)cc4)c3Cl)c2n1` [Example 9, 2,4-Dichloro-N-methyl-N-[(4-hydroxyphenyl)methyl]-3-[(2-methylquinolin-8-yl)oxymethyl]benzenesulfonamide], for which the inhibition at 1 µM amounted to 99.5%.

As for `Cc1ccc2cccc(OCc3c(Cl)ccc(S(=O)(=O)N(C)Cc4cccc(C(N)=O)c4)c3Cl)c2n1` [Example 10, 2,4-Dichloro-N-methyl-N-[[3-(aminocarbonyl)phenyl]methyl]-3[(2-methylquinolin-8-yl)oxymethyl]benzenesulfonamide], the inhibition at 1 µM worked out at 99.8%.

On to `CNC(=O)c1cccc(CN(C)S(=O)(=O)c2ccc(Cl)c(COc3cccc4ccc(C)nc34)c2Cl)c1` [Example 11, 2,4-Dichloro-N-methyl-N-[[3-(methylaminocarbonyl)phenyl]methyl]-3-[(2-methylquinolin-8-yl)oxymethyl]benzenesulfonamide], for which the inhibition at 1 µM amounted to 100%.

For the molecule `Cc1ccc2cccc(OCc3c(Cl)ccc(S(=O)(=O)N(C)Cc4cccc(C(=O)N(C)C)c4)c3Cl)c2n1` [Example 12, 2,4-Dichloro-N-methyl-N-[[3-[(dimethylamino)carbonyl]phenyl]methyl]-3-[(2-methylquinolin-8-yl)oxymethyl]benzenesulfonamide], the inhibition at 1 µM stood at 96.9%.

Regarding `Cc1ccc2cccc(OCc3c(Cl)ccc(S(=O)(=O)N(C)Cc4cccc(C(=O)NCCCO)c4)c3Cl)c2n1` [Example 13, 2,4-Dichloro-N-methyl-N-[[3-[(3-hydroxypropyl)aminocarbonyl]phenyl]-methyl]-3-[(2-methylquinolin-8-yl)oxymethyl]benzenesulfonamide], the inhibition at 1 µM was determined as 99.3%.

For `Cc1ccc2cccc(OCc3c(Cl)ccc(S(=O)(=O)N(C)Cc4cccc(C(=O)NCCN(C)C)c4)c3Cl)c2n1` [Example 14, 2,4-Dichloro-N-methyl-N-[[3-[[2-(dimethylamino)ethyl]aminocarbonyl]-phenyl]-methyl]-3-[(2-methylquinolin-8-yl)oxymethyl]benzenesulfonamide], the inhibition at 1 µM was 100%.

For the molecule `Cc1ccc2cccc(OCc3c(Cl)ccc(S(=O)(=O)N(C)CCc4ccccc4)c3Cl)c2n1` [Example 15, 2,4Dichloro-N-methyl-N-(2-phenylethyl)-3-[(2-methylquinolin-8-yl)oxymethyl]benzenesulfonamide], the inhibition at 1 µM amounted to 97.9%.

In the case of `Cc1ccc2cccc(OCc3c(Cl)ccc(S(=O)(=O)N(C)CCCCCCCN)c3Cl)c2n1` [Example 16, 2,4-Dichloro-N-methyl-N-(7-aminoheptyl)-3-[(2-methylquinolin-8-yl)oxymethyl]benzenesulfonamide bis(trifluoroacetate)], the inhibition at 1 µM was determined as 100%.

With `CNC(=O)CCCCCN(C)S(=O)(=O)c1ccc(Cl)c(COc2cccc3ccc(C)nc23)c1Cl` [Example 19, 2,4-Dichloro-N-methyl-N-[6-(methylamino)-6-oxohexyl]-3-[(2-methylquinolin-8-yl)oxymethyl]benzenesulfonamide], the inhibition at 1 µM stood at 99%.

Regarding `Cc1ccc2cccc(OCc3c(Cl)ccc(S(=O)(=O)N(C)CCCCCCCCO)c3Cl)c2n1` [Example 20, 2,4-Dichloro-N-methyl-N-(8-hydroxyoctyl)-3-[(2-methylquinolin-8-yl)oxymethyl]benzenesulfonamide], the inhibition at 1 µM was 95.7%.

In the case of `Cc1ccc2cccc(OCc3c(Cl)ccc(S(=O)(=O)N(C)CCCCCCCCCCCCO)c3Cl)c2n1` [Example 21, 2,4-Dichloro-N-methyl-N-(12-hydroxydodecyl)-3-[(2-methylquinolin-8-yl)oxymethyl]benzenesulfonamide], the inhibition at 1 µM was found to be 94.3%.

Turning to `Cc1ccc2cccc(OCc3c(Cl)ccc(S(=O)(=O)N(CCCCN)C(C)(C)C)c3Cl)c2n1` [Example 23, N-(4-Aminobutyl)-N-(1,1-dimethylethyl)-2,4-dichloro-3-[(2-methylquinolin-8-yl)oxymethyl]benzenesulfonamide], the inhibition at 1 µM was determined as 92.8%.

For `CC(=O)NCCCCN(C(C)(C)C)S(=O)(=O)c1ccc(Cl)c(COc2cccc3ccc(C)nc23)c1Cl` [Example 24], the inhibition at 1 µM was 90.5%.

Consider `Cc1ccc2cccc(OCc3c(Cl)ccc(S(=O)(=O)N(CCCCCCCO)Cc4ccccc4)c3Cl)c2n1` [Example 25, 2,4-Dichloro-N-(phenylmethyl)-N-(7-hydroxyheptyl)-3-[(2-methylquinolin-8-yl]oxymethyl]benzenesulfonamide], for which the inhibition at 1 µM was 95.1%.

Turning to `CNC(=O)CCCCCCCN(Cc1ccccc1)S(=O)(=O)c1ccc(Cl)c(COc2cccc3ccc(C)nc23)c1Cl` [Example 28, 2,4-Dichloro-N-(phenylmethyl)-N-[8-(methylamino)-8-oxooctyl]-3-[(2-methylquinolin-8-yl)oxymethyl]benzenesulfonamide], the inhibition at 1 µM is 98%.
